Experimental data as given in paper PMC10150354, “Linearization of the Brevicidine and Laterocidine Lipopeptides Yields Analogues That Retain Full Antibacterial Activity” (Journal of Medicinal Chemistry, 2023).
Converted amounts (≈) assume the structure as drawn. Where a SMILES comes first, the peptide text is derived from it. [ ]: non-standard residue; d: D form. The star is where a group is joined. ξ: configuration not given here. Octanoyl(7-Me) = CC(C)CCCCCC(=O)*; Hexanoyl(4ξ-Me) = CCC(C)CCC(=O)*; dOrn = NCCC[C@@H](N)C(=O)O; Orn = NCCC[C@H](N)C(=O)O

Tests used:
[1] = system: E. coli (MCR-1); format: cell-based, Escherichia coli; conditions: microbroth dilution per CLSI, MHB, 18 h at 37 °C, visual inspection, three technical replicates, E. coli 25922 carrying mcr-1
Procedure, shortened: (§1)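 Broth microdilution per CLSI in MHB: TSB cultures grown to OD600 ~0.5 were diluted to 2 × 10^5 CFU/mL and added to serially diluted compounds, then incubated 18 h at 37 °C with shaking. MIC is the lowest concentration preventing visible growth, from three technical replicates; the MCR-1 strain (E. coli ATCC 25922 background) was grown with kanamycin.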

[2] = system: E. coli ATCC 25922; format: cell-based, Escherichia coli; conditions: for Antibacterial activity (MIC) E. coli ATCC 25922: microbroth dilution per CLSI, MHB, 18 h at 37 °C, visual inspection, three technical replicates; for MIC (µg/mL) against E. coli (ATCC 25922): (Supplement 2)
Procedure, shortened: as §1

[3] = system: K. pneumoniae ATCC 13883; format: cell-based, Klebsiella pneumoniae; conditions: microbroth dilution per CLSI, MHB, 18 h at 37 °C, visual inspection, three technical replicates
Procedure, shortened: as §1

[4] = system: A. baumannii ATCC 17961; format: cell-based, Acinetobacter baumannii; conditions: microbroth dilution per CLSI, MHB, 18 h at 37 °C, visual inspection, three technical replicates
Procedure, shortened: as §1

[5] = system: P. aeruginosa PAO1; format: cell-based, Pseudomonas aeruginosa; conditions: microbroth dilution per CLSI, MHB, 18 h at 37 °C, visual inspection, three technical replicates
Procedure, shortened: as §1

[6] = system: S. aureus USA300; format: cell-based, Staphylococcus aureus; conditions: microbroth dilution per CLSI, MHB, 18 h at 37 °C, visual inspection, three technical replicates
Procedure, shortened: as §1

| Structure (SMILES) | Antibacterial activity (MIC) E. coli (MCR-1) [1] [µg/mL] | Antibacterial activity (MIC) E. coli ATCC 25922 [2] [µg/mL] | Antibacterial activity (MIC) K. pneumoniae ATCC 13883 [3] [µg/mL] | Antibacterial activity (MIC) A. baumannii ATCC 17961 [4] [µg/mL] | Antibacterial activity (MIC) P. aeruginosa PAO1 [5] [µg/mL] | Antibacterial activity (MIC) S. aureus USA300 [6] [µg/mL] | MIC (µg/mL) against E. coli (ATCC 25922) [2] [µg/mL] |
| --- | --- | --- | --- | --- | --- | --- | --- |
| CC[C@H](C)[C@H](NC(=O)[C@@H](NC(=O)[C@H](Cc1c[nH]c2ccccc12)NC(=O)[C@@H](CCCN)NC(=O)CNC(=O)[C@H](C)NC(=O)[C@@H](CCCN)NC(=O)[C@@H](Cc1c[nH]c2ccccc12)NC(=O)[C@@H](Cc1ccc(O)cc1)NC(=O)[C@@H](CO)NC(=O)CCCCCC(C)C)[C@@H](C)O)C(=O)N[C@@H](CC(N)=O)C(=O)NCC(=O)NCC(N)=O [LL(Ala5)-NH2 (33)] ({Octanoyl(7-Me)}-[dS][dY][dW][dOrn]AG[dOrn]WTINGG-NH2) | >32 | 32 | >32 | >32 | 32 | >32 | – |
| CC[C@H](C)[C@H](NC(=O)[C@@H](NC(=O)[C@H](Cc1c[nH]c2ccccc12)NC(=O)[C@@H](C)NC(=O)CNC(=O)[C@H](CCCN)NC(=O)[C@@H](CCCN)NC(=O)[C@@H](Cc1c[nH]c2ccccc12)NC(=O)[C@@H](Cc1ccc(O)cc1)NC(=O)[C@@H](CO)NC(=O)CCCCCC(C)C)[C@@H](C)O)C(=O)N[C@@H](CC(N)=O)C(=O)NCC(=O)NCC(N)=O [LL(D-Ala7)-NH2 (35)] ({Octanoyl(7-Me)}-[dS][dY][dW][dOrn][Orn]G[dA]WTINGG-NH2) | >32 | >32 | >32 | 32 | 32 | >32 | – |
| CC(C)CCCCCC(=O)N[C@H](CO)C(=O)N[C@H](Cc1ccc(O)cc1)C(=O)N[C@H](Cc1c[nH]c2ccccc12)C(=O)N[C@H](CCCN)C(=O)N[C@@H](CCCN)C(=O)NCC(=O)N[C@H](CCCN)C(=O)N[C@@H](Cc1c[nH]c2ccccc12)C(N)=O [Δ9–13LL-NH2 (16)] ({Octanoyl(7-Me)}-[dS][dY][dW][dOrn][Orn]G[dOrn]W-NH2) | >32 | >32 | >32 | 32 | >32 | >32 | – |
| CC[C@H](C)[C@H](NC(=O)[C@@H](NC(=O)[C@H](Cc1c[nH]c2ccccc12)NC(=O)[C@@H](CCCN)NC(=O)CNC(=O)[C@H](CCCN)NC(=O)[C@@H](CCCN)NC(=O)[C@@H](Cc1c[nH]c2ccccc12)NC(=O)[C@@H](Cc1ccc(O)cc1)NC(=O)[C@@H](CO)NC(=O)CCCCCC(C)C)[C@@H](C)O)C(=O)N[C@@H](CC(N)=O)C(=O)NCC(=O)NCC(=O)O [LL-OH (4)] ({Octanoyl(7-Me)}-[dS][dY][dW][dOrn][Orn]G[dOrn]WTINGG-OH) | 16 | 8 | 8 to 16 | 16 | 8 | >32 | – |
| CC[C@H](C)[C@H](NC(=O)[C@@H](NC(=O)[C@H](Cc1c[nH]c2ccccc12)NC(=O)[C@@H](CCCN)NC(=O)CNC(=O)[C@H](CCCN)NC(=O)[C@@H](CCCN)NC(=O)[C@@H](Cc1c[nH]c2ccccc12)NC(=O)[C@@H](Cc1ccc(O)cc1)NC(=O)[C@@H](CO)NC(=O)CCCCCC(C)C)[C@@H](C)O)C(=O)N[C@@H](CC(N)=O)C(=O)NCC(N)=O [Δ13LL-NH2 (8)] ({Octanoyl(7-Me)}-[dS][dY][dW][dOrn][Orn]G[dOrn]WTING-NH2) | 8 | 8 | 4 to 8 | 4 | 4 | >32 | – |
| CCC(C)CCC(=O)N[C@H](CC(N)=O)C(=O)N[C@H](Cc1ccc(O)cc1)C(=O)N[C@H](Cc1c[nH]c2ccccc12)C(=O)N[C@H](CCCN)C(=O)N[C@@H](CCCN)C(=O)NCC(=O)N[C@H](CCCN)C(=O)N[C@@H](Cc1c[nH]c2ccccc12)C(N)=O (some centres unmarked) [Δ9–12LB-NH2 (15)] ({Hexanoyl(4ξ-Me)}-[dN][dY][dW][dOrn][Orn]G[dOrn]W-NH2) | >32 | >32 | >32 | >32 | >32 | >32 | – |
| CCC(C)CCC(=O)N[C@H](CC(N)=O)C(=O)N[C@H](Cc1ccc(O)cc1)C(=O)N[C@H](Cc1c[nH]c2ccccc12)C(=O)N[C@H](CCCN)C(=O)N[C@@H](CCCN)C(=O)NCC(=O)N[C@H](CCCN)C(=O)N[C@@H](Cc1c[nH]c2ccccc12)C(=O)N[C@H](C(=O)N[C@H](C(N)=O)[C@@H](C)CC)[C@@H](C)O (some centres unmarked) [Δ11–12LB-NH2 (11)] ({Hexanoyl(4ξ-Me)}-[dN][dY][dW][dOrn][Orn]G[dOrn]WTI-NH2) | 4 to 8 | 4 | 2 | 8 | 2 | >32 | – |
| CC[C@H](C)[C@H](NC(=O)[C@@H](NC(=O)[C@H](Cc1c[nH]c2ccccc12)NC(=O)[C@@H](CCCN)NC(=O)CNC(=O)[C@H](CCCN)NC(=O)[C@@H](C)NC(=O)[C@@H](Cc1c[nH]c2ccccc12)NC(=O)[C@@H](Cc1ccc(O)cc1)NC(=O)[C@@H](CO)NC(=O)CCCCCC(C)C)[C@@H](C)O)C(=O)N[C@@H](CC(N)=O)C(=O)NCC(=O)NCC(N)=O [LL(D-Ala4)-NH2 (32)] ({Octanoyl(7-Me)}-[dS][dY][dW][dA][Orn]G[dOrn]WTINGG-NH2) | >32 | >32 | >32 | 32 | >32 | >32 | – |
| CC[C@H](C)[C@H](NC(=O)[C@H](Cc1ccccc1)NC(=O)[C@H](Cc1c[nH]c2ccccc12)NC(=O)[C@@H](CCCN)NC(=O)CNC(=O)[C@H](CCCN)NC(=O)[C@@H](CCCN)NC(=O)[C@@H](Cc1c[nH]c2ccccc12)NC(=O)[C@@H](Cc1ccc(O)cc1)NC(=O)[C@@H](CO)NC(=O)CCCCCC(C)C)C(=O)N[C@@H](CC(N)=O)C(=O)NCC(=O)NCC(N)=O [LL(Phe9)-NH2 (43)] ({Octanoyl(7-Me)}-[dS][dY][dW][dOrn][Orn]G[dOrn]WFINGG-NH2) | 4 | 4 | 8 | 4 | 8 | >32 | 4 (≈ 2.4 µM) |
| CC[C@H](C)[C@H](NC(=O)[C@@H](NC(=O)[C@H](Cc1c[nH]c2ccccc12)NC(=O)[C@@H](CCCN)NC(=O)CNC(=O)[C@H](CCCN)NC(=O)[C@@H](CCCN)NC(=O)[C@@H](Cc1c[nH]c2ccccc12)NC(=O)[C@@H](Cc1ccc(O)cc1)NC(=O)[C@@H](CO)NC(=O)CCCCCC(C)C)[C@@H](C)O)C(=O)N[C@@H](CC(N)=O)C(=O)N[C@@H](C)C(=O)NCC(N)=O [LL(Ala12)-NH2 (40)] ({Octanoyl(7-Me)}-[dS][dY][dW][dOrn][Orn]G[dOrn]WTINAG-NH2) | 8 | 8 | 8 | 8 | 8 | >32 | – |
| CC[C@H](C)[C@H](NC(=O)[C@@H](NC(=O)[C@H](Cc1c[nH]c2ccccc12)NC(=O)[C@@H](CCCN)NC(=O)CNC(=O)[C@H](CCCN)NC(=O)[C@@H](CCCN)NC(=O)[C@@H](Cc1c[nH]c2ccccc12)NC(=O)[C@@H](Cc1ccc(O)cc1)NC(=O)[C@@H](CO)NC(=O)CCCCCC(C)C)[C@@H](C)O)C(=O)N[C@@H](CC(N)=O)C(N)=O [Δ12–13LL-NH2 (10)] ({Octanoyl(7-Me)}-[dS][dY][dW][dOrn][Orn]G[dOrn]WTIN-NH2) | 8 | 4 | 8 to 16 | 4 | 4 | >32 | – |
| CC[C@H](C)[C@H](NC(=O)[C@H](CC(N)=O)NC(=O)[C@H](Cc1c[nH]c2ccccc12)NC(=O)[C@@H](CCCN)NC(=O)CNC(=O)[C@H](CCCN)NC(=O)[C@@H](CCCN)NC(=O)[C@@H](Cc1c[nH]c2ccccc12)NC(=O)[C@@H](Cc1ccc(O)cc1)NC(=O)[C@@H](CO)NC(=O)CCCCCC(C)C)C(=O)N[C@@H](CC(N)=O)C(=O)NCC(=O)NCC(N)=O [LL(Asn9)-NH2 (47)] ({Octanoyl(7-Me)}-[dS][dY][dW][dOrn][Orn]G[dOrn]WNINGG-NH2) | 8 | 8 | 8 to 16 | 16 | 8 | >32 | 8 (≈ 4.89 µM) |
